Experimental data taken from US20050089554A1, “Apparatus and method for enhancing transdermal drug delivery” (priority 2003, published 2005).

Columns and labels:
[1] = Urinary excretion of 3H desmopressin injected intravenously (previous studies); type: in vivo; details: hairless, urine, iv, total radioactivity, injected intravenously in HGPs, read-out: fraction excreted in urine
Procedure: (§1) Following application of the microprojection solid film system in HGPs, the gel pack was placed on top of the microprojection member, as illustrated in FIG. 12. At 1 h and 24 h after application, three (3) systems from each group of HGPs were removed and the residual drug washed form the skin. The amount of the drug penetrated during these times intervals was determined by measuring urinary excretion of tritium (previous studies had shown that in HGPs, 71% of ^3H desmopressin injected intravenously is excreted in urine).

[2] = Desmopressin flux through skin (microprojection solid film system and gel pack), from urinary excretion of tritium; type: in vivo, HGPs; details: 5 mg tritiated desmopressin solid film, 2% HEC gel pack; 1 h and 24 h; FIG. 20
Procedure: An experiment was conducted to test the concept of the hydratable system using the peptide desmopressin. A system similar to that presented in Example 2 was provided.
The system included a 2 cm^2 solid film containing 5 mg tritiated desmopressin. The thin film was prepared by casting a 20 mil thick aqueous solution comprised of 10 wt. % HPMC 2910 USP and 20 wt. % glycerol. The film was dried and punched into 2 cm^2 discs. Each disc was imbibed with a 20 wt. % ^3H desmopressin solution and subsequently dried. The solid film was subsequently disposed proximate the top surface of the microprojection member. The gel pack or gel reservoir contained 0.120 mL of 2% HEC (NATROSOL® 250 HHX) in water.
as §1

For NC(=O)CC[C@@H]1NC(=O)[C@H](Cc2ccccc2)NC(=O)[C@H](Cc2ccc(O)cc2)NC(=O)CCSSC[C@@H](C(=O)N2CCC[C@H]2C(=O)N[C@H](CCCN=C(N)N)C(=O)NCC(N)=O)NC(=O)[C@H](CC(N)=O)NC1=O [desmopressin], the dose excreted [1] was 71% and the “flux through the skin, time dependence” value [2] was “time dependant flux”.
